The values below come from US12435128B2, “Method for predicting therapeutic effect of LSD1 inhibitor based on expression of INSM1” (TAIHO PHARMACEUTICAL CO., LTD., priority 2017, dated 2025).

SMILES strings stand for the structures. Structures can show the parent of a compound that is named as a salt. Where two headings read alike, the source gives them in different places.

Holding throughout (assay type): cell-based
The test system of assay [1] is NCI-H146 cells (human small-cell lung cancer cell lines). The assay is described as follows: Cell-growth inhibition test: NCI-H146 cells. The note with it: NCI-H146 cells; read-out: IC50 (nM), Cell-Growth Inhibition Test: NCI-H146 Cells. How it is done:
(§1) Under the following conditions, an in vitro cell-growth inhibition test was performed with respect to HEL cells (human acute myelocytic leukemia cell lines), NCI-H1417 cells (human small-cell lung cancer cell lines), and NCI-H146 cells (human small-cell lung cancer cell lines).
(§2) The cells with the Example compound or with dimethylsulfoxide alone were cultured at 37° C. in a 5% carbon-dioxide-containing incubator for 5 days (HEL cells) or 10 days (NCI-H1417 cells and NCI-H146 cells). After culture, the plate was allowed to stand at room temperature for 30 minutes, and 100 μL of the supernatant was removed from each well to leave 100 μL of the cell culture solution. To each well containing the remaining 100 μL of the cell culture solution, the same amount of CellTiter-Glo 2.0 Assay (Promega, Cat #: G9242) was added. The microplate was shaken with a plate mixer for 1 minute and then allowed to stand in a dark place for 10 minutes. Thereafter, the luminescence intensity of viable cells in each well was measured using a microplate reader (PerkinElmer, EnSpire). […] Cell growth rate(%)=T/C×100 • T: The luminescence intensity in a well to which the test compound was added (count per second) • C: The luminescence intensity in a well to which dimethylsulfoxide alone was added (count per second)

Assay [2] has as its system HEL cells (human acute myelocytic leukemia cell lines). The assay is described as follows: Cell-growth inhibition test: HEL cells. The note with it: read-out: IC50 (nM), Cell-Growth Inhibition Test: HEL Cells. As for the experimental part: as §1, §2
The subject of assay [3] is NCI-H1417 cells (human small-cell lung cancer cell lines). The assay is described as follows: Cell-growth inhibition test: NCI-H1417 cells. The note with it: read-out: IC50 (nM), Cell-Growth Inhibition Test: NCI-H1417 Cells. As for the experimental part: as §1, §2

Take `CC(C)(O)CC1OCc2cc(-c3ccc(C(=O)N4[C@@H]5CC[C@H]4[C@@H](N)C5)cc3-c3ccc(C#N)c(F)c3)c(F)cc21` (single isomer, unassigned) [Example 226]: the 50% inhibitory concentration (IC50) in assay [1] came out at 10.1 nM; in assay [2], 2.56 nM; in assay [3], 5.36 nM.
For `Cc1c(F)c(-c2ccc(C(=O)N3[C@@H]4CC[C@H]3[C@@H](N)C4)cc2-c2ccc(C#N)c(F)c2)cc2nnn(CC(C)(C)O)c12` (single isomer, unassigned) [Example 228], the IC50 in assay [1] stood at 0.51 nM; in assay [2], 0.68 nM; in assay [3], 0.3 nM.
For the compound `CNC(=O)c1cn(C)c2cc(F)c(-c3ccc(C(=O)N4[C@@H]5CC[C@H]4[C@@H](N)C5)cc3-c3ccc(C#N)c(F)c3)cc12` (single isomer, unassigned) [Example 237], the values for the IC50 in assay [1], in assay [2] and in assay [3] were 5.14 nM, 28.5 nM and 6.63 nM, respectively.
Consider `CN(C)C(=O)c1cn(C)c2cc(F)c(-c3ccc(C(=O)N4[C@@H]5CC[C@H]4[C@@H](N)C5)cc3-c3ccc(C#N)c(F)c3)cc12` (single isomer, unassigned) [Example 238], for which the IC50 in assay [1] was 17.7 nM; in assay [2] it was 26.1 nM; in assay [3], 10.8 nM.
Turning to `CC(C)(O)Cn1nnc2cc(-c3ccc(C(=O)N4[C@@H]5CC[C@H]4[C@@H](N)C5)cc3-c3ccc(C#N)c(F)c3)c(F)c(C#N)c21` (single isomer, unassigned) [Example 247], the IC50 in assay [1] is 3.84 nM; in assay [2], 3.02 nM; in assay [3] it was 1.4 nM.
`N#Cc1ccc(-c2cc(C(=O)N3[C@@H]4CC[C@H]3[C@@H](N)C4)ccc2-c2cc3nnn(CC4(O)CCC4)c3c(F)c2F)cc1F` (single isomer, unassigned) [Example 254]: the IC50 in assay [1] is 0.36 nM; in assay [2], 0.2 nM; in assay [3], 0.18 nM.
As to `N#Cc1ccc(-c2cc(C(=O)N3[C@@H]4CC[C@H]3[C@@H](N)C4)ccc2-c2cc3nnn(CC4(O)CCC4)c3c(C(F)F)c2F)cc1F` (single isomer, unassigned) [Example 260], the results for the IC50 in assay [1], in assay [2] and in assay [3] were 0.48 nM, 0.13 nM and 0.13 nM, respectively.
Turning to `N#Cc1ccc(-c2cc(C(=O)N3[C@@H]4CC[C@H]3[C@@H](N)C4)ccc2-c2cc3nnn(CC4(O)CCC4)c3c(C#N)c2F)cc1F` (single isomer, unassigned) [Example 264], the IC50 in assay [1] is 0.96 nM; in assay [2], 0.84 nM; in assay [3], 0.3 nM.
Regarding `Cc1ccc(-c2ccc(CN3[C@@H]4CC[C@H]3[C@@H](N)C4)cc2-c2ccc(C#N)c(F)c2)c(F)c1` (single isomer, unassigned) [Example 283], the IC50 was found to be 11.1 nM in assay [1], 0.79 nM in assay [2] and 2.1 nM in assay [3].
With `CC(C)(O)Cn1nnc2cc(-c3ccc(CN4[C@@H]5CC[C@H]4[C@@H](N)C5)cc3-c3ccc(C#N)c(F)c3)c(F)c(F)c21.Cl.Cl` (single isomer, unassigned) [Example 285, dihydrochloride], the IC50 turned out to be 0.49 nM in assay [1], 0.046 nM in assay [2] and 0.09 nM in assay [3].
Consider `N#Cc1ccc(-c2cc(CN3[C@@H]4CC[C@H]3[C@@H](N)C4)ccc2-c2cc3nnn(CC4(O)CCC4)c3c(Cl)c2F)cc1F` (single isomer, unassigned) [Example 286, dihydrochloride], for which the IC50 in assay [1] is 0.17 nM; in assay [2], 0.036 nM; in assay [3], 0.083 nM.
Consider `CCC(O)(CC)Cn1nnc2cc(-c3ccc(CN4[C@@H]5CC[C@H]4[C@@H](N)C5)cc3-c3ccc(C#N)c(F)c3)c(F)c(Cl)c21` (single isomer, unassigned) [Example 288, dihydrochloride], for which the half-maximal inhibitory concentration (IC50) stood at 1.29 nM in assay [1], 0.062 nM in assay [2] and 0.22 nM in assay [3].
Regarding `CC(C)(O)Cn1ccc2cc(-c3ccc(CN4[C@@H]5CC[C@H]4[C@@H](N)C5)cc3-c3ccc(C#N)c(F)c3)c(F)cc21` (single isomer, unassigned) [Example 289, dihydrochloride], the IC50 worked out at 0.97 nM in assay [1], 0.036 nM in assay [2] and 0.094 nM in assay [3].
On to `Cn1ccc2cc(-c3ccc(C(=O)N4C5CCC4CC(N)C5)cc3-c3ccc(C#N)c(F)c3)ccc21` (stereo not drawn) [Example 18, 4-[5-[(3-exo)-3-amino-8-azabicyclo[3.2.1]octane-8-carbonyl]-2-(1-methylindol-5-yl)phenyl]-2-fluoro-benzonitrile], for which the IC50 in assay [1] amounted to 8.13 nM; in assay [2] (HEL cells) it was 3.55 nM; in assay [3] (NCI-H1417 cells), 4.73 nM.
Take `Cn1ccc2cc(-c3ccc(C(=O)N4C5CCC4CC(N)C5)cc3-c3ccc(C#N)c(F)c3)c(F)cc21` (stereo not drawn) [Example 123, 4-[5-[(3-endo)-3-amino-8-azabicyclo[3.2.1]octane-8-carbonyl]-2-(6-fluoro-1-methyl-indol-5-yl)phenyl]-2-fluoro-benzonitrile]: the IC50 in assay [1] came to 1.39 nM; in assay [2] (HEL cells) it was 1.99 nM; in assay [3] (NCI-H1417 cells) it was 3.57 nM.
For the compound `CC(C)(O)Cn1ccc2cc(-c3ccc(C(=O)N4C5CCC4CC(N)C5)cc3-c3ccc(C#N)c(F)c3)c(F)c(F)c21` (stereo not drawn) [Example 183, 5′-((3-endo)-3-amino-8-azabicyclo[3.2.1]octane-8-carbonyl)-2′-(6,7-difluoro-1-(2-hydroxy-2-methylpropyl)-1H-indol-5-yl)-3-fluoro-[1,1′-biphenyl]-4-carbonitrile], the IC50 in assay [1] was determined as 0.25 nM; in assay [2], 0.54 nM; in assay [3], 1.01 nM.
The matching figures for `CC(C)(O)CCn1ncc2cc(-c3ccc(C(=O)N4C5CCC4CC(N)C5)cc3-c3ccc(C#N)c(F)c3)c(F)cc21` (stereo not drawn) [Example 194, 5′-((3-endo)-3-amino-8-azabicyclo[3.2.1]octane-8-carbonyl)-3-fluoro-2′-(6-fluoro-1-(3-hydroxy-3-methylbutyl)-1H-indazol-5-yl)-[1,1′-biphenyl]-4-carbonitrile]: 11.3 nM, 15.5 nM and 5.63 nM.
The matching figures for `CCC(O)(CC)Cn1ncc2cc(-c3ccc(C(=O)N4C5CCC4CC(N)C5)cc3-c3ccc(C#N)c(F)c3)c(F)cc21` (stereo not drawn) [Example 205, 5′-((3-endo)-3-amino-8-azabicyclo[3.2.1]octane-8-carbonyl)-2′-(1-(2-ethyl-2-hydroxybutyl)-6-fluoro-1H-indazol-5-yl)-3-fluoro-[1,1′-biphenyl]-4-carbonitrile]: 15.1 nM, 4.95 nM and 6.25 nM.
Take `CCC(O)(CC)Cn1nnc2cc(-c3ccc(C(=O)N4C5CCC4CC(N)C5)cc3-c3ccc(C#N)c(F)c3)c(F)c(Cl)c21` (stereo not drawn) [Example 220, 5′-((3-endo)-3-amino-8-azabicyclo[3.2.1]octane-8-carbonyl)-2′-(7-chloro-1-(2-ethyl-2-hydroxybutyl)-6-fluoro-1H-benzo[d][1,2,3]triazol-5-yl)-3-fluoro-[1,1′-biphenyl]-4-carbonitrile]: the IC50 in assay [1] worked out at 1.81 nM; in assay [2], 1.09 nM; in assay [3] it was 1.03 nM.
`Cc1c(F)c(-c2ccc(C(=O)N3C4CCC3CC(N)C4)cc2-c2ccc(C#N)c(F)c2)cc2nnn(CC(C)(C)O)c12` (stereo not drawn) [Example 240, 5′-((3-endo)-3-amino-8-azabicyclo[3.2.1]octane-8-carbonyl)-3-fluoro-2′-(6-fluoro-1-(2-hydroxy-2-methylpropyl)-7-methyl-1H-benzo[d][1,2,3]triazol-5-yl)-[1,1′-biphenyl]-4-carbonitrile]: the IC50 in assay [1] is 4.81 nM; in assay [2], 4.2 nM; in assay [3] it was 2.55 nM.
With `CC(C)(O)Cn1nnc2cc(-c3ccc(C(=O)N4C5CCC4CC(N)C5)cc3-c3ccc(C#N)c(F)c3)c(F)c(C(F)F)c21` (stereo not drawn) [Example 250, 5′-((3-endo)-3-amino-8-azabicyclo[3.2.1]octane-8-carbonyl)-2′-(7-(difluoromethyl)-6-fluoro-1-(2-hydroxy-2-methylpropyl)-1H-benzo[d][1,2,3]triazol-5-yl)-3-fluoro-[1,1′-biphenyl]-4-carbonitrile], the IC50 turned out to be 9.3 nM in assay [1], 2.36 nM in assay [2] and 1.2 nM in assay [3].
Regarding `N#Cc1ccc(-c2cc(C(=O)N3C4CCC3CC(N)C4)ccc2-c2cc3nnn(CC4(O)CCC4)c3c(C(F)F)c2F)cc1F` (stereo not drawn) [Example 262, 5′-((3-endo)-3-amino-8-azabicyclo[3.2.1]octane-8-carbonyl)-2′-(7-(difluoromethyl)-6-fluoro-1-((1-hydroxycyclobutyl)methyl)-1H-benzo[d][1,2,3]triazol-5-yl)-3-fluoro-[1,1′-biphenyl]-4-carbonitrile], the IC50 was 3.1 nM in assay [1], 0.93 nM in assay [2] and 0.7 nM in assay [3].

In general, IC50 refers to the concentration that gives 50% inhibition.
